In assay [1] the test system is human neutrophils stimulated with MSU. The experiment in a line: Superoxide production by human neutrophils (cytochrome C reduction). Format: cell-based. The note with it: 1 mg/ml MSU. The procedure:
The results are expressed as a ratio of the superoxide produced by the MSU control.
Superoxide production was measured using the reduction of cytochrome C assay. The difference between the optical density readings at 550 nm and 540 nm read within the first 10 minutes was multiplied by the extinction coefficient of cytochrome C to obtain the number of nmol O2 produced by 1×10^6 cells. The results are expressed as nmol O2/1×10^6 cells/ml.
An additional neutrophil effector function that is calcium-dependent, known to be activated by MSU and that can cause damage to the inflamed joint, is the production of ROS.

Assay [2] has the same test system. The assay is described as follows: MSU-induced calcium mobilization in human neutrophils (Fura-2). The note with it: 1 mg/ml MSU, 30 min pre-incubation. Format: cell-based. The procedure: Neutrophils were isolated from venous blood of healthy adult volunteers. Briefly, venous blood was obtained in tubes containing isocitrate, red blood cells were sedimented in 2% dextran and neutrophils were aseptically purified by centrifugation on Ficoll-Paque cushions. Contaminating erythrocytes were removed by hypotonic lysis and neutrophils were resuspended in Mg^2+-free HBSS containing 1.6 mM of CaCl2.
(FIG. 7D), D1=(28a) (FIGS. 7E and 7J), D2=(39) (FIG. 7F), D3=(47a) (FIGS. 7G and 7J), D4=(89) (FIG. 7H) prior to the addition of MSU (1 mg/ml).
The intracellular calcium concentration was determined with a spectrofluorometer and is expressed as the area under the curve (from the MSU injection up to 100 sec).
Changes in cytoplasmic calcium were then measured after the addition of MSU or HBSS (the negative control) using two excitation wavelengths at 340 and 380 nm and an emission wavelength of 510 nm. The free internal calcium concentration was estimated from the ratio of the fluorescence values obtained at 340 and 380 nm. The results are calculated as the area under the curve of the intracellular calcium concentration as a function of time (0-100 sec relative to stimulus addition).
Since one of the earliest molecular events in neutrophils that is initiated by MSU is the mobilization of intracellular calcium stores, the effect of (91) (CCl), (43) and (47a) was assessed on this early signalling event. Briefly, and as described in further detail above, human neutrophils were incubated with the fluorescent calcium indicator Fura-2 prior to incubation with a range of concentrations of (91) (CCl), (43) or (47a) and stimulated with MSU. Fura-2 monitors the increase in cytoplasmic calcium caused by its release from intracellular stores.
A general note: Calcium assays in cells follow changes in intracellular calcium, usually with a dye or a luminescent sensor.

Assay [3] deals with MSU-induced leukocyte recruitment to the dorsal air-pouch. The note with it: literature value (Chia et al. 2008); cited from earlier work.
Assay [4] shares this test system. The experiment in a line: Air-pouch model, compound given 1.5 hours after MSU. To be noted: 0.5 μmol/kg, after MSU. Type of assay: in vivo, mice. The procedure: (§1) An air-pouch was generated on the dorsum of mice over a period of seven days by injecting air subcutaneously. […] Seven hours after the administration of MSU, the exudate in the air pouches was harvested by two flushes with 2 ml and one with 1 ml of PBS+0.5 M EDTA and the number of recruited leukocytes determined by flow cytometry. Leukocytes were stained with an anti-CD45 and anti-Ly6 G antibody.

Assay [5] relates to human neutrophils stimulated with MSU. The experiment in a line: CXCL8/IL-8 release by human neutrophils (ELISA). Format: cell-based. The note with it: 1 mg/ml MSU, 3 h. The procedure: (§2) Extracellular CXCL8/IL-8 or IL-1β were quantified by ELISA (Invitrogen). All samples were measured in duplicate.
In addition, since IL-1 induces the expression of adhesion molecules on endothelial cells as well as the synthesis of pro-inflammatory cytokines, which together promote a massive recruitment of neutrophils, the ability of CCl (91) and CH-35 (43) to dampen the production of IL-1 was also assessed.
In general terms: ELISA stands for enzyme-linked immunosorbent assay.

Assay [6] shares this test system. The assay is described as follows: IL-1 release by TNF-α primed human neutrophils (ELISA). Type of assay: cell-based. To be noted: 1 mg/ml MSU, 3 h. The procedure: as §2
The production and secretion of mature IL-1 requires two stimuli. Human neutrophils were, therefore, primed with TNF-α prior to stimulation with MSU. […] (FIG. 8H-J).

For assay [7], the system named is MSU-induced leukocyte recruitment to the dorsal air-pouch. The assay is described as follows: Air-pouch model, compound given 5 min prior to MSU. Type of assay: in vivo, CD-1 mice. The procedure: as §1

Entries after “also recorded” stand apart in the source; their conditions may differ.

On to “N-[(7S)-1,2,3,10-tetramethoxy-9-oxo-5,6,7,9-tetrahydrobenzo[α]heptalen-7-yl] acetamide [Colchicine, reference compound]”, for which the “lowest concentration inhibiting MSU-induced superoxide production” value in assay [1] turned out to be 1 µM. The “lowest concentration significantly inhibiting the MSU-induced increase in intracellular calcium” value in assay [2] came to 10 µM. Further, the “dose that effectively dampens MSU-induced leukocyte recruitment in mice” value in assay [3] was 5 µmol/kg. Also, the “effect on MSU-induced leukocyte recruitment at 0.5 μmol/kg” value in assay [4] is reported as “no longer able to significantly inhibit; also recorded: loses its anti-inflammatory activity”; in assay [7] (0.5 μmol/kg, 5 min prior to MSU) it was “lost its potency to significantly inhibit”. Further, the “lowest concentration giving significant decrease in MSU-induced release of IL-8” value in assay [5] is 1 µM. Besides, in assay [6], the “concentration at which MSU-induced IL-1 production is diminished (threshold)” value was 10 µM. Moreover, the “dose inhibiting MSU-induced leukocyte recruitment” value in assay [7] (subcutaneous 5 min prior to MSU, 7 hours) came out at 5 µmol/kg.

Values taken from patent US20210283092A1, “METHODS AND USES OF […] DERIVATIVES” (priority 2018, published 2021).
